Assay results reported in PMC7050258, “Inhibition of MGAT2 modulates fat‐induced gut peptide release and fat intake in normal mice and ameliorates obesity and diabetes in ob/ob mice fed on a high‐fat diet” (FEBS Open Bio, 2020).
Several values for one entry are separate records, joined by “and”; a condition that tells them apart may be missing. Equal entries are not always repeated.

Columns and labels:
C57BL/6J mice = experiment: Food choice test (HFD vs LFD); type: in vivo, mouse; settings: overnight, CpdB 10 mg/kg oral, liraglutide 0.04 mg/kg sc
Method: The choice between HFD (D12451; Research Diets, Inc.) and low‐fat diet (LFD, 10% kcal fat, 3.8 kcal·g^−1; D124510B; Research Diets, Inc.) was assessed in C57BL/6J mice. Following habituation to normal chow, HFD and LFD were presented in separate containers simultaneously, and overnight food intake of each diet was monitored. The mice were divided into groups based on the data of food intake and body weight. Then, vehicle or CpdB (10 mg·kg^−1) was orally administered, and the overnight food intake of each diet was monitored. CpdB was suspended in 0.5% methylcellulose. As a positive control, liraglutide (0.04 mg·kg^−1) dissolved in 10% DMSO/saline was subcutaneously administered.

rats = system: rats; parameters: method as in PMID 22301859; settings: cited from earlier work
HFD-fed ob/ob mice = HFD-fed ob/ob mice study; type: in vivo, mouse
Method: Male ob/ob mice were fed an HFD (D12451; Research Diets, Inc.) from 8 weeks of age to the end of the study. After 2 weeks of HFD feeding, the mice were divided into groups based on their body weight, food intake, glycated hemoglobin (GHb), and plasma biochemical parameters. […] Compounds were suspended in 0.5% methylcellulose. Body weight and food intake were monitored during the study. On day 34, blood was collected and GHb and plasma biochemical parameters were measured. In addition, body composition was analyzed by EchoMRI‐900 (Hitachi Aloka Medical, Ltd., Tokyo, Japan). On day 36, the mice in the vehicle‐ and CpdB‐treated group were individually placed in the metabolic chamber of an Oxymax system (Columbus Instruments, Columbus, OH, USA). After 3 h of adaptation, oxygen consumption (VO2) and carbon dioxide production (VCO2) were analyzed for 22 h (from 13:00 to 11:00). During the measurement, dosing of vehicle or CpdB was performed at 18:00. Respiratory quotient (RQ) and energy expenditure (EE) were calculated with the following formulas: RQ=VCO2/VO2 EEkcal/h=3.815+1.232×VCO2/VO2×VO2
Blood samples were collected from the tail or facial vein without anesthesia and centrifuged at 1500 g for 10 min at 4 °C to isolate the plasma. To prevent degradation of incretin hormone, blood samples were treated with not only heparin/aprotinin but also a dipeptidyl peptidase‐4 (DPP‐4) inhibitor. Plasma alanine aminotransferase […] levels were measured by an Autoanalyzer 7180 (Hitachi High‐Technologies Corporation, Tokyo, Japan). GHb was measured with an automated GHb analyzer (HLC‐723G8; Tosoh, Tokyo, Japan). Plasma insulin was measured with an ELISA kit (Shibayagi Co., Ltd., Gunma, Japan). Plasma levels of total GLP‐1 and total PYY were also measured with an ELISA kit (Wako Pure Chemicals).

rats fed a 35% fat diet = system: rats fed a 35% fat diet; parameters: method as in PMID 25857225; settings: cited from earlier work
[1] = CpdB 30 mg/kg, pioglitazone 3 mg/kg oral once daily, mean
[2] = CpdB 30 mg/kg, pioglitazone 3 mg/kg oral once daily, single animal values
[3] = EchoMRI, day 34, CpdB 30 mg/kg, pioglitazone 3 mg/kg, mean
[4] = EchoMRI, day 34, CpdB 30 mg/kg, pioglitazone 3 mg/kg, single animal values
[5] = day 34, CpdB 30 mg/kg, pioglitazone 3 mg/kg oral once daily, mean ± SD, n=8

With Liraglutide the “Food intake, energy intake of HFD, AVE” value (C57BL/6J mice; mean, N=5) was 6.46 kcal, the “Food intake, energy intake of low-fat diet, AVE” value (C57BL/6J mice; mean, N=5) was 0.24 kcal and the “Food intake, total energy intake, AVE” value (C57BL/6J mice; mean, N=5) was 6.69 kcal. The “Food intake, energy intake of HFD, individual animal” value (C57BL/6J mice; single animal values) was 6.02 kcal and 8.08 kcal and 6.16 kcal and 4.18 kcal and 7.85 kcal, the “Food intake, energy intake of low-fat diet, individual animal” value (C57BL/6J mice; single animal values) was 0.00 kcal and 0.19 kcal and 0.34 kcal and 0.27 kcal and 0.38 kcal and the “Food intake, total energy intake, individual animal” value (C57BL/6J mice; single animal values) was 6.02 kcal and 8.27 kcal and 6.50 kcal and 4.45 kcal and 8.23 kcal. The “intake of highly palatable diet” value (rats) was “predominantly reduce the intake of highly palatable diet”.
With `CCc1ccc(CCOc2ccc(CC3SC(=O)NC3=O)cc2)nc1` (stereo not shown) [Pioglitazone, pioglitazone, reference compound] the “Body weight change from initial, AVE” value (HFD-fed ob/ob mice; [1]) was 30.48%, the “Cumulative food intake, AVE” value (HFD-fed ob/ob mice; [1]) was 136.37 g and the “Body weight change from initial, individual animal” value (HFD-fed ob/ob mice; [2]) was 29.04% and 29.60% and 25.91% and 30.72% and 29.56% and 32.63% and 37.29%. For the same compound, the “Cumulative food intake, individual animal” value (HFD-fed ob/ob mice; [2]) was 144.84 g and 134.34 g and 122.14 g and 143.74 g and 138.07 g and 136.64 g and 133.11 g and 138.10 g, the “Body composition, Fat, AVE” value (HFD-fed ob/ob mice; [3]) was 63.35% and the “Body composition, Lean, AVE” value (HFD-fed ob/ob mice; [3]) was 36.65%. The “Body composition, Fat, individual animal” value (HFD-fed ob/ob mice; [4]) was 62.74% and 63.31% and 66.38% and 62.25% and 63.50% and 61.77% and 61.53% and 65.34%, the “Body composition, Lean, individual animal” value (HFD-fed ob/ob mice; [4]) was 33.62% and 37.75% and 36.50% and 38.23% and 38.47% and 37.26% and 36.69% and the “GHb, Pre” value (HFD-fed ob/ob mice; before dosing, mean ± SD, n=8) was 5.9 ± 0.3%. The “Plasma AST, Pre” value (HFD-fed ob/ob mice; before dosing, mean ± SD, n=8) was 314 ± 61 U·L^−1, the “Plasma insulin, Pre” value (HFD-fed ob/ob mice; before dosing, mean ± SD, n=8) was 103 ± 29 ng/mL and the “ΔGHb, AVE” value (HFD-fed ob/ob mice; change 34 days after repeated dosing, CpdB 30 mg/kg, pioglitazone 3 mg/kg oral once daily, mean) was -1.01%. For the same compound, the “ΔGHb, individual animal” value (HFD-fed ob/ob mice; change 34 days after repeated dosing, CpdB 30 mg/kg, pioglitazone 3 mg/kg, single animal values) was -1.00% and -0.90% and -1.10% and -1.40% and -0.70% and -0.80%, the “GHb, Post” value (HFD-fed ob/ob mice; [5]) was 4.9 ± 0.4 % and the “Plasma ALT, Post” value (HFD-fed ob/ob mice; [5]) was 803 ± 132 U·L^−1. The “Plasma AST, Post” value (HFD-fed ob/ob mice; [5]) was 733 ± 174 U·L^−1 and the “Plasma insulin, Post” value (HFD-fed ob/ob mice; day 34, CpdB 30 mg/kg, pioglitazone 3 mg/kg oral once daily, nonfasting, mean ± SD, n=8) was 30.8 ± 16 ng/mL.
In the case of `CC(C)(C)c1cc(C(C)(C)C)nc(N2CCn3c(nnc3-c3ccc(OC(F)(F)F)cc3)C2)n1` [JTP‐103237], the “increase of plasma levels of PYY after lipid loading” value (rats fed a 35% fat diet) is listed as “enhance the increase”.
